Test results as given in patent US20090155209A1, “NOVEL MACROCYCLIC INHIBITORS OF HEPATITIS C VIRUS REPLICATION” (priority 2007, published 2009).

Experiments:
[1] = target: T1, NS3-NS4 (Hepatitis C virus genotype 1a, UniProt P27958); assay: NS3-NS4 activity, IC50 (Example 37, Table 8); assay type: biochemical
[2] = target: T1, NS3-NS4; assay: cell-based; details: EC50, NS3-NS4 activity

T1 sequence (P27958 1027-1657): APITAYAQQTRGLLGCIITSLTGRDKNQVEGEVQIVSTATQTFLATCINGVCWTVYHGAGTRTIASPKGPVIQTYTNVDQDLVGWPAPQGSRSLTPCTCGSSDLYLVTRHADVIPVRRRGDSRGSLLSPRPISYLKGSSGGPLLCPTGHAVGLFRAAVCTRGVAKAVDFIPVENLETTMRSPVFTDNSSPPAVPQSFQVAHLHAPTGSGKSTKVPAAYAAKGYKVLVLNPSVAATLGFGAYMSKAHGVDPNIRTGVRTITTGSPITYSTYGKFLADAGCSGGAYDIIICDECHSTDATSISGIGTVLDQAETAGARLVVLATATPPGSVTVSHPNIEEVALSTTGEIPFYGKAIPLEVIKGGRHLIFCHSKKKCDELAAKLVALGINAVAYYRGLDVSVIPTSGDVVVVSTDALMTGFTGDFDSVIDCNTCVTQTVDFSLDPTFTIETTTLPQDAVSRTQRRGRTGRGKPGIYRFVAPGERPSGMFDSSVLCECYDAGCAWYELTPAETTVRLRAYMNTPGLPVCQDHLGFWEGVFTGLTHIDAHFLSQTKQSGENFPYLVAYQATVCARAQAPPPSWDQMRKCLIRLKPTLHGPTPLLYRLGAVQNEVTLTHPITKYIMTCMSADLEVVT
T1 sequence (P27958 1658-1711): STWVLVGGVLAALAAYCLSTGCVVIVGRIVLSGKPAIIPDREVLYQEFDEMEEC

| SMILES | IC50 [1] [nM] | EC50 [2] [nM] |
| --- | --- | --- |
| Cc1ccccc1S(=O)(=O)NC(=O)[C@@]12C[C@H]1CCCCCCC[C@H](NC(=O)OC(C)(C)C)C(=O)N1C[C@H](OC(=O)N3Cc4cccc(F)c4C3)C[C@H]1C(=O)N2 [Compound 602] | < 100 | < 100 |
| CC(C)(C)OC(=O)N[C@H]1CCCCC/C=C\[C@@H]2C[C@@]2(C(=O)NS(=O)(=O)c2cc3ccccc3o2)NC(=O)[C@@H]2C[C@@H](OC(=O)N3Cc4cccc(F)c4C3)CN2C1=O [Compound 542] | < 100 | 100 to 1000 |
| CC(C)(C)OC(=O)N[C@H]1CCCCC/C=C\[C@@H]2C[C@@]2(C(=O)NS(=O)(=O)c2c(F)cccc2F)NC(=O)[C@@H]2C[C@@H](OC(=O)N3Cc4ccccc4C3)CN2C1=O [Compound 364] | < 100 | 100 to 1000 |
| CC(C)CC1(S(=O)(=O)NC(=O)[C@@]23C[C@H]2CCCCCCC[C@H](NC(=O)OC(C)(C)C)C(=O)N2C[C@H](OC(=O)N4Cc5cccc(F)c5C4)C[C@H]2C(=O)N3)CC1 [Compound 654] | < 100 | < 100 |
| CC(C)CONC(=O)[C@@]12C[C@H]1CCCCCCC[C@H](NC(=O)OC(C)(C)C)C(=O)N1C[C@H](OC(=O)N3Cc4cccc(F)c4C3)C[C@H]1C(=O)N2 [Compound 814] | < 100 | < 100 |
| CC(C)(C)OC(=O)N[C@H]1CCCCC/C=C\[C@@H]2C[C@@]2(C(=O)NS(=O)(=O)c2cccc(F)c2)NC(=O)[C@@H]2C[C@@H](OC(=O)N3Cc4cccc(F)c4C3)CN2C1=O [Compound 350] | < 100 | < 100 |
| Cc1cc(F)ccc1S(=O)(=O)NC(=O)[C@@]12C[C@H]1/C=C\CCCCC[C@H](NC(=O)OC(C)(C)C)C(=O)N1C[C@H](OC(=O)N3Cc4cccc(F)c4C3)C[C@H]1C(=O)N2 [Compound 346] | < 100 | < 100 |
| O=C(N[C@H]1CCCCC/C=C\[C@@H]2C[C@@]2(C(=O)NS(=O)(=O)c2ccc(Cl)cc2)NC(=O)[C@@H]2C[C@@H](OC(=O)N3Cc4cccc(F)c4C3)CN2C1=O)OC1CCOC1 (stereo partly drawn) [Compound 334] | < 100 | < 100 |
| O=C1N[C@]2(C(=O)NS(=O)(=O)C3CC3)C[C@H]2/C=C\CCCCC[C@H](Nc2nc(-c3nc4ccccc4s3)cs2)C(=O)N2C[C@H](OC(=O)N3Cc4cccc(F)c4C3)C[C@@H]12 [Compound 217] | < 100 | < 100 |
| Cc1cccc(ONC(=O)[C@@]23C[C@H]2CCCCCCC[C@H](NC(=O)OC(C)(C)C)C(=O)N2C[C@H](OC(=O)N4Cc5cccc(F)c5C4)C[C@H]2C(=O)N3)c1 [Compound 805] | < 100 | 1000 to 10000 |
| CCCS(=O)(=O)NC(=O)[C@@]12C[C@H]1/C=C\CCCCC[C@H](NC(=O)OC(C)(C)C)C(=O)N1C[C@H](OC(=O)N3Cc4cccc(F)c4C3)C[C@H]1C(=O)N2 [Compound 550] | < 100 | < 100 |
| CC(C)(C)OC(=O)N[C@H]1CCCCC/C=C\C2CC2(C(=O)NOc2ccccc2)NC(=O)[C@@H]2C[C@@H](OC(=O)N3Cc4cccc(F)c4C3)CN2C1=O (stereo in doubt) [Compound 101, (2R,6S,13aS,14aR,16aS,Z)-6-(tert-butoxycarbonylamino)-5,16-dioxo-14a-(phenoxycarbamoyl)-1,2,3,5,6,7,8,9,10,11,13a,14,14a,15,16,16a-hexadecahydrocyclopropa[e]pyrrolo[1,2-a][1,4]diazacyclopentadecin-2-yl 4-fluoroisoindoline-2-carboxylate] | < 100 | < 100 |
| CC(C)(C)OC(=O)N[C@H]1CCCCCCC[C@@H]2C[C@@]2(C(=O)NS(=O)(=O)c2ccccc2Cl)NC(=O)[C@@H]2C[C@@H](OC(=O)N3Cc4cccc(F)c4C3)CN2C1=O [Compound 603] | < 100 | < 100 |
| Cc1ccccc1S(=O)(=O)NC(=O)[C@@]12C[C@H]1/C=C\CCOCC[C@H](NC(=O)OC(C)(C)C)C(=O)N1C[C@H](OC(=O)N3Cc4cccc(Cl)c4C3)C[C@H]1C(=O)N2 [Compound 321, (2R,6S,13aS,14aR,16aSZ)-6-(tert-butoxycarbonylamino)-5,16-dioxo-14a-(o-tolylsulfonylcarbamoyl)-2,3,5,6,7,8,10,11,13a,14,14a,15,16,16a-tetradecahydro-1H-cyclopropa[j]pyrrolo[1,2-f][1,6,9]oxadiazacyclopentadecin-2-yl 4-chloroisoindoline-2-carboxylate] | < 100 | < 100 |
| O=C1N[C@]2(C(=O)NS(=O)(=O)C3CC3)C[C@H]2/C=C\CCCCC[C@H](Nc2nc(-c3ccc(C(F)(F)F)cc3)cs2)C(=O)N2C[C@H](OC(=O)N3Cc4cccc(F)c4C3)C[C@@H]12 [Compound 216] | < 100 | < 100 |
| CCC(C)(C)OC(=O)N[C@H]1CCCCC/C=C\[C@@H]2C[C@@]2(C(=O)NS(=O)(=O)C2CC2)NC(=O)[C@@H]2C[C@@H](OC(=O)N3Cc4cccc(F)c4C3)CN2C1=O [Compound 431] |  | < 100 |
| CC(C)(C)OC(=O)N[C@H]1CCCCC/C=C\[C@@H]2C[C@@]2(C(=O)NS(=O)(=O)c2ccc(Cl)s2)NC(=O)[C@@H]2C[C@@H](OC(=O)N3Cc4cccc(F)c4C3)CN2C1=O [Compound 323] |  | < 100 |
| CC(C)(C)OC(=O)N[C@H]1CCCCC/C=C\[C@@H]2C[C@@]2(C(=O)NOCC2CC2)NC(=O)[C@@H]2C[C@@H](OC(=O)N3Cc4cccc(F)c4C3)CN2C1=O [Compound 102, (2R,6S,13aS,14aR,16aS,Z)-6-(tert-butoxycarbonylamino)-14a-(cyclopropylmethoxycarbamoyl)-5,16-dioxo-1,2,3,5,6,7,8,9,10,11,13a,14,14a,15,16,16a-hexadecahydrocyclopropa[e]pyrrolo[1,2-a][1,4]diazacyclopentadecin-2-yl 4-fluoroisoindoline-2-carboxylate] |  | < 100 |
| CCC(C)(C)OC(=O)N[C@H]1CCCCC/C=C\[C@@H]2C[C@@]2(C(=O)NS(=O)(=O)C2CC2)NC(=O)[C@@H]2C[C@@H](OC(=O)N3Cc4cccc(F)c4C3)CN2C1=O [Compound 438] |  | 100 to 1000 |
| CC(C)(C)ONC(=O)[C@@]12C[C@H]1/C=C\CCCCC[C@H](NC(=O)OC(C)(C)C)C(=O)N1C[C@H](OC(=O)N3Cc4cccc(F)c4C3)C[C@H]1C(=O)N2 [Compound 103, (2R,6S,13aS,14aR,16aS,Z)-14a-(tert-butoxycarbamoyl)-6-(tert-butoxycarbonylamino)-5,16-dioxo-1,2,3,5,6,7,8,9,10,11,13a,14,14a,15,16,16a-hexadecahydrocyclopropa[e]pyrrolo[1,2-a][1,4]diazacyclopentadecin-2-yl 4-fluoroisoindoline-2-carboxylate] |  | < 100 |
| CC(C)(C)OC(=O)N[C@H]1CCCCCC2CC2[C@@H]2C[C@@]2(C(=O)NOc2ccccc2)NC(=O)[C@@H]2C[C@@H](OC(=O)N3Cc4cccc(F)c4C3)CN2C1=O (stereo partly drawn) [Compound 906] | < 100 |  |
| Cc1cc(S(=O)(=O)NC(=O)[C@@]23C[C@H]2CCCCCCC[C@H](NC(=O)OC(C)(C)C)C(=O)N2C[C@H](OC(=O)N4Cc5cccc(F)c5C4)C[C@H]2C(=O)N3)oc1C [Compound 640] | < 100 |  |
| CC(C)(C)OC(=O)N[C@H]1CCCCCCC[C@@H]2C[C@@]2(C(=O)NS(=O)(=O)Cc2ccc(F)cc2)NC(=O)[C@@H]2C[C@@H](OC(=O)N3Cc4cccc(F)c4C3)CN2C1=O [Compound 609] | < 100 |  |
| CC(C)(C)OC(=O)N[C@H]1CCCCCCC[C@@H]2C[C@@]2(C(=O)NS(=O)(=O)Cc2ccc(Cl)cc2)NC(=O)[C@@H]2C[C@@H](OC(=O)N3Cc4cccc(F)c4C3)CN2C1=O [Compound 612] | < 100 |  |
